Results: ChEMBL document CHEMBL3232866, “Design of novel potent antihyperlipidemic agents with antioxidant/anti-inflammatory properties: exploiting phenothiazine's strong antioxidant activity” (J Med Chem, 2014)
Calls of active or inactive are those of the source. No cut-off for these calls is given here.

Tests used:
[1] = system: Radical scavenging activity; assay: Antioxidant activity assessed as DPPH radical scavenging activity after 30 mins; format: functional
[2] = system: Mus musculus; assay: Antidyslipidemic activity in chronic high-fat diet (2.5 w/w cholesterol, 0.5% w/w cholic acid, 10% w/w peanut oil) fed SKH-2 mouse assessed as decrease in LDL level in plasma at 56 umol/kg, ip bid for 21 days; format: functional; conditions: SKH-2, Plasma, 504 h
[3] = system: Mus musculus; assay: Antidyslipidemic activity in chronic high-fat diet (2.5 w/w cholesterol, 0.5% w/w cholic acid, 10% w/w peanut oil) fed SKH-2 mouse assessed as decrease in total cholesterol level in plasma at 56 umol/kg, ip bid for 30 days measured on day 30; format: functional; conditions: SKH-2, Plasma, 720 h
[4] = system: Rattus norvegicus; assay: In vivo antidyslipidemic activity against Triton WR 1339-induced hyperlipidemic Wistar rat model assessed as decrease in total cholesterol level in plasma at 56 umol/kg, ip administered as single dose 1 hr after Triton WR 1339 challenge measured after 24 hrs; format: functional
[5] = system: Mus musculus; assay: Effect on food intake in chronic high-fat diet (2.5 w/w cholesterol, 0.5% w/w cholic acid, 10% w/w peanut oil) fed SKH-2 mouse at 56 umol/kg, ip bid for 30 days; format: ADME, organism-based; conditions: in vivo, 720 h
[6] = system: Mus musculus; assay: Hepatotoxicity in apoE-/- transgenic mouse assessed as liver enzymes level administered for 3.5 months; format: toxicity, organism-based; conditions: in vivo
[7] = system: Mus musculus; assay: Antiatherosclerotic activity in apoE-/- transgenic mouse assessed as decrease in primary atherosclerotic lesions administered for 3.5 months; format: functional, organism-based
[8] = system: Mus musculus; assay: Antidyslipidemic activity in chronic high-fat diet (2.5 w/w cholesterol, 0.5% w/w cholic acid, 10% w/w peanut oil) fed SKH-2 mouse assessed as decrease in total cholesterol level in plasma at 56 umol/kg, ip bid for 21 days; format: functional; conditions: SKH-2, Plasma, 504 h
[9] = system: Mus musculus; assay: Antidyslipidemic activity in chronic high-fat diet (2.5 w/w cholesterol, 0.5% w/w cholic acid, 10% w/w peanut oil) fed SKH-2 mouse assessed as decrease in LDL level in plasma at 56 umol/kg, ip bid for 30 days measured on day 30; format: functional; conditions: SKH-2, Plasma, 720 h
[10] = system: Rattus norvegicus; assay: In vivo antidyslipidemic activity against Triton WR 1339-induced hyperlipidemic Wistar rat model assessed as decrease in triglyceride level in plasma at 56 umol/kg, ip administered as single dose 1 hr after Triton WR 1339 challenge measured after 24 hrs; format: functional
[11] = target: T1, Prostaglandin G/H synthase 1 (Bos taurus) (UniProt O62664); assay: Inhibition of bovine COX-1 assessed as PGF2-alpha formation using arachidonic acid as substrate at 20 uM by enzyme immunoassay
T1 sequence (whole entry): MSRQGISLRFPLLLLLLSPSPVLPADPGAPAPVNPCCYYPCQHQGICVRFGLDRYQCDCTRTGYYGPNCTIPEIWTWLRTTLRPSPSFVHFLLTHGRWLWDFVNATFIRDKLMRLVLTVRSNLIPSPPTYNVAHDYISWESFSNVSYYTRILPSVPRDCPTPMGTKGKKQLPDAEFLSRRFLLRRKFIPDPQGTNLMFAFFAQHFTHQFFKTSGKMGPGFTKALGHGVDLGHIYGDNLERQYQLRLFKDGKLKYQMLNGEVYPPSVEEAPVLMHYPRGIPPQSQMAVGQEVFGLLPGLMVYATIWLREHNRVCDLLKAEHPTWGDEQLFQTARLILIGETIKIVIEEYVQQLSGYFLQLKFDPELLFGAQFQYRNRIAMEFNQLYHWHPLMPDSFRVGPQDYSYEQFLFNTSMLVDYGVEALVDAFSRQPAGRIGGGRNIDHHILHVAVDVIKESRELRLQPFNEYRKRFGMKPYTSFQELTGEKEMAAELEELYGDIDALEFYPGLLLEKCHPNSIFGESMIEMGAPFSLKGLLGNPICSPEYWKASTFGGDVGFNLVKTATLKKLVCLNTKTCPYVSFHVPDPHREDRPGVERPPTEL

[12] = system: Mus musculus; assay: Antidyslipidemic activity in chronic high-fat diet (2.5 w/w cholesterol, 0.5% w/w cholic acid, 10% w/w peanut oil) fed SKH-2 mouse assessed as triglyceride level in plasma at 56 umol/kg, ip bid for 30 days measured on day 30; format: functional, organism-based
[13] = system: Radical scavenging activity; assay: Antioxidant activity assessed as DPPH radical scavenging activity up to 50 uM measured within 15 mins; format: functional
[14] = Antioxidant activity in rat liver microsome membrane assessed as inhibition of lipid peroxidation after 45 mins by TBARS-based spectrophotometric assay; format: functional, microsomes
[15] = system: Mus musculus; assay: Effect on blood glucose level in chronic high-fat diet (2.5 w/w cholesterol, 0.5% w/w cholic acid, 10% w/w peanut oil) fed SKH-2 mouse at 56 umol/kg, ip bid for 30 days; format: ADME, organism-based; conditions: in vivo, 720 h
[16] = system: Mus musculus; assay: Effect on body weight in chronic high-fat diet (2.5 w/w cholesterol, 0.5% w/w cholic acid, 10% w/w peanut oil) fed SKH-2 mouse at 56 umol/kg, ip bid for 30 days; format: ADME, organism-based; conditions: in vivo, 720 h
[17] = system: Mus musculus; assay: Antidyslipidemic activity in chronic high-fat diet (2.5 w/w cholesterol, 0.5% w/w cholic acid, 10% w/w peanut oil) fed SKH-2 mouse assessed as increase in HDL level in plasma at 56 umol/kg, ip bid for 30 days measured on day 30; format: functional
[18] = system: Rattus norvegicus; assay: In vivo antidyslipidemic activity against Triton WR 1339-induced hyperlipidemic Wistar rat model assessed as decrease in LDL-cholesterol level in plasma at 56 umol/kg, ip administered as single dose 1 hr after Triton WR 1339 challenge measured after 24 hrs; format: functional
[19] = target: T2, Squalene synthase (Rattus norvegicus, UniProt Q02769); assay: (§1) Inhibition of squalene synthase in rat liver microsomes assessed as decrease in conversion of [3H]FPP to squalene
T2 sequence (Q02769 whole entry): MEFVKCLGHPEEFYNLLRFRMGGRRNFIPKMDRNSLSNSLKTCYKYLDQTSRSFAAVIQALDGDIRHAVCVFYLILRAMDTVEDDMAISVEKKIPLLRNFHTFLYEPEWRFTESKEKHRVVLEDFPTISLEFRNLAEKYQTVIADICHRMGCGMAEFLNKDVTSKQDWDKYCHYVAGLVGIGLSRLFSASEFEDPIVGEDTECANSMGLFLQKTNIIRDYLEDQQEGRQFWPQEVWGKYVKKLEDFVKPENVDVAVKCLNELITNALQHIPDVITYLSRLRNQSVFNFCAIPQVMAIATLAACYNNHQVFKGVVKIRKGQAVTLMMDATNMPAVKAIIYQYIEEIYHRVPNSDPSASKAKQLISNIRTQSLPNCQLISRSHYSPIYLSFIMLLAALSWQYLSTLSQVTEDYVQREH

[20] = target: T3, Squalene synthase (Rattus norvegicus) (UniProt Q02769); assay: as §1
T3 sequence (whole entry): T2 sequence (Q02769 whole entry)

[21] = system: Mus musculus; assay: Antidyslipidemic activity in chronic high-fat diet (2.5 w/w cholesterol, 0.5% w/w cholic acid, 10% w/w peanut oil) fed SKH-2 mouse assessed as HDL/LDL ratio in plasma at 56 umol/kg, ip bid for 30 days measured on day 30 (reference value: 0.2 no unit); format: functional
[22] = system: Glycine max; assay: Inhibition of soybean lipoxygenase using sodium linoleate as substrate up to 100 uM measured for 6 mins

Q: Which IC50 [1] does the source give for CN1CCOC(O)(c2ccc3c(c2)Nc2ccccc2S3)C1 (racemic) here?
A: 191 µM

Q: And the inhibition in vivo at 56 µmol/kg [2]?
A: 58%

Q: What about the inhibition in vivo at 56 µmol/kg [3] of the same molecule?
A: 53%

Q: And the inhibition in vivo at 56 µmol/kg [4]?
A: 70%

Q: And the Activity [5]?
A: Non-toxic

Q: And the Activity [6]?
A: Non-toxic

Q: And the inhibition [7]?
A: Active

Q: What about the inhibition in vivo at 56 µmol/kg [8] of the same molecule?
A: 45%

Q: What about the inhibition in vivo at 56 µmol/kg [9] of the same molecule?
A: 76%

Q: And the inhibition in vivo at 56 µmol/kg [10]?
A: 94%

Q: And the inhibition [11]?
A: 92%

Q: What about the Activity [12] of the same molecule?
A: inactive

Q: And the Activity [13]?
A: Active

Q: What about the IC50 [14] of the same molecule?
A: 0.47 µM

Q: What about the Activity [15] of the same molecule?
A: Non-toxic

Q: What about the Activity [16] of the same molecule?
A: Non-toxic

Q: What about the Activity [17] of the same molecule?
A: 120%

Q: What about the inhibition in vivo at 56 µmol/kg [18] of the same molecule?
A: 80%

Q: And the IC50 [19]?
A: 5 µM

Q: And the inhibition [20]?
A: Dose-dependent effect

Q: And the Ratio [21]?
A: 1.2

Q: And the inhibition [22]?
A: inactive
